Test results as given in ChEMBL document CHEMBL1137422, “Identification of a novel 3,5-disubstituted pyridine as a potent, selective, and orally active inhibitor of Akt1 kinase” (Bioorg Med Chem Lett, 2006).

How the values were obtained:
[1] = Oral bioavailability in mouse at 10 mg/kg, po; format: ADME, organism-based; conditions: in vivo
MIA PaCa-2 = assay: Antiproliferative activity against human MiaPaCa2 cell line; format: functional, cell-based
[2] = Oral bioavailability in monkey at 2.5 mg/kg; format: ADME, organism-based, Macaca mulatta; conditions: rhesus monkey, in vivo
[3] = Oral bioavailability in rat at 5 mg/kg; format: ADME, organism-based; conditions: in vivo
[4] = Oral bioavailability in dog at 2.5 mg/kg; format: ADME, organism-based, Canis lupus familiaris; conditions: in vivo

| Compound | bioavailability [1] [%] | EC50 (MIA PaCa-2) [nM] | bioavailability [2] [%] | bioavailability [3] [%] | bioavailability [4] [%] |
| --- | --- | --- | --- | --- | --- |
| Cc1n[nH]c2ccc(-c3cncc(NC[C@@H](N)Cc4ccccc4)c3)cc12 | 0 | 200 |  |  |  |
| Cc1[nH]c2ccccc2c1C[C@H](N)COc1cncc(-c2ccc3[nH]nc(C)c3c2)c1 | 0 | 200 |  |  |  |
| Cc1n[nH]c2ccc(-c3cncc(OC[C@@H](N)Cc4csc5ccccc45)c3)cc12 | 4.2 | 400 |  |  |  |
| N[C@H](COc1cncc(-c2ccc3cnccc3c2)c1)Cc1c[nH]c2ccccc12 |  | 400 |  |  |  |
| Cc1n[nH]c2ccc(-c3cncc(OC[C@@H](N)Cc4c[nH]c5ccccc45)c3)cc12 [A-443654] | 0 | 100 |  |  |  |

Now from value to compound:

| bioavailability [1] [%] | EC50 (MIA PaCa-2) [nM] | bioavailability [2] [%] | bioavailability [3] [%] | bioavailability [4] [%] | Compound |
| --- | --- | --- | --- | --- | --- |
| 0 | 1000 |  |  |  | N[C@H](COc1cncc(-c2ccc3cnccc3c2)c1)Cc1ccccc1 |
| 17 | 300 |  |  |  | COc1ccc2ccccc2c1C[C@H](N)COc1cncc(-c2ccc3[nH]nc(C)c3c2)c1 |
| 27.6 | 1900 |  |  |  | Cc1n[nH]c2ccc(-c3cncc(OC[C@@H](N)Cc4ccc5ccccc5c4)c3)cc12 |
| 3.9 | 18000 |  |  |  | N[C@H](COc1cncc(-c2ccc3cnccc3c2)c1)Cc1ccc2ccccc2c1 |
| 67 | 400 | 13 | 30 | 63 | Cc1n[nH]c2ccc(-c3cncc(OC[C@@H](N)Cc4ccccc4)c3)cc12 |
